Measurements as given in article PMC11986180, “ZIF-8 Selective Dispersive Solid-Phase Extraction-LC-MS/MS Method for the Determination of Aconitine alkaloids in Rat Plasma: Application in Pharmacokinetic Studies” (Journal of Analytical Methods in Chemistry, 2025).
Read-outs that look alike come from different tables or passages of the source.

How the values were obtained:
[1] = assay type: physicochemical, rat
Description: Aconitine, hypaconitine, mesaconitine, lappaconitine, benzoylaconitine, and yohimbine were individually dissolved in 10 mL of methanol to prepare the stock solution. These compounds were subsequently diluted with methanol to achieve final concentrations of 10 and 5.0 μg/mL to prepare the working standard solutions, which were stored at 4°C before use. Under the optimized conditions, 10 μL of the working standard solution and IS (5.0 μg/mL), along with 15 mg of ZIF-8, was added to 200 μL of blank rat plasma and various blank tissue homogenates. The final concentrations of the calibration standard samples were 0.3125, 0.625, 1.5625, 3.125, 6.25, 12.5, 25, 50, 100, 500, and 1000 ng/mL. Plasma quality control (QC) samples were prepared at concentrations of 0.625, 6.25, 10, and 50 ng/mL. Standard calibration samples and HPLC–MS samples were stored at −20°C until analysis.
Stability tests were conducted to replicate real-world conditions that samples are likely to encounter. […]

[2] = Pharmacokinetics of aconitine alkaloids in rat plasma after oral administration of Fuzi extract (d-SPE-LC-MS/MS); assay type: in vivo, Sprague–Dawley rats; details: for AUC(0-inf) / AUC(0-t) / half-life / MRT last / MRT inf / Tmax: n = 6, oral (gastric gavage) 10 mg/kg Fuzi extract; for half-life: one-compartment model; for MRT last: read-out: MRT0-t; for MRT inf: read-out: MRT0-∞; for Cmax: oral 10 mg/kg Fuzi extract, read-out: maximum concentrations (Cmax); for Tmax: 10 mg/kg
Description: Male Sprague–Dawley rats (250–300 g, 8–10 weeks old) were procured from Shenzhen Bao'an Authentic TCM Therapy Hospital (Guangzhou, China) and acclimatized in a controlled environment (temperature: 25°C ± 2°C; humidity: 50% ± 5%; 12-h dark–light cycle) for at least 3 days before experimentation (Animal License Number: SCXK [Guangdong] 2022-0002). Laboratory animal compound feed (Guangdong Feeding Certificate: 2019, No. 05,073) was provided. All animal experiments were performed in accordance with the Guide for the Care and Use of Laboratory Animals by the National Institutes of Health. Ethical approval for the animal studies was obtained from the Ethics Committee of Sinopharm Dongfeng General Hospital. The animal protocols used in this study were approved by the Institutional Animal Care and Use Committee of Sinopharm Dongfeng General Hospital.
The crude powder of Fuzi (50 g) was decocted in 500 mL of water for 1 h to obtain the crude extract, which was then concentrated to 100 mL and stored at 4°C.
All rats were maintained under standard conditions with ad libitum access to food and water. They were divided into two groups: Group 1 was used to prepare blank plasma samples, and Group 2 was designated for pharmacokinetic studies. Drug-free rat plasma was collected via suborbital venous hemorrhage. Pharmacokinetic studies involved continuous blood sampling from the suborbital venous plexus, as described previously. Each rat was administered a 10 mg/kg dose of Fuzi extract via gastric gavage. Blood samples (200 μL) were collected at […] time points (0, 0.25, 0.50, 0.75, 1.0, 2.0, 3.0, 4.0, 6.0, 8.0, 10, 12, and 24 h postadministration) for pharmacokinetic analysis. The samples were collected into microtubes containing 5 μL of heparin, followed by centrifugation at 4000 rpm for 10 min. The resulting plasma ([…]) was separated and immediately frozen at −20°C for further analysis. Figure 2 illustrates the typical d-SPE–LC/MS profile of blank plasma and aconitine alkaloids, showing distinct peaks in rat plasma at 1 h postadministration without interference from endogenous peaks, thus maintaining a stable baseline for analyte and IS detection.
Before solid-phase extraction, ZIF-8 was activated by placing it in a vacuum-drying oven at 60°C for 24 h to remove surface-adsorbed water and other volatile substances. Rat plasma (100 μL) was combined with 350 μL of a 50% acetonitrile–water solution and 50 μL of yohimbine (IS). Following this, 15 mg of ZIF-8 was added to the mixture, which was then shaken for 18 min for extraction. After centrifugation, the adsorbent remained in the tube while the supernatant was discarded. Subsequently, 1000 μL of methanol was added to the tube, and ultrasonic elution of the nanocomposite was performed for 5 min. After centrifugation to collect the ZIF-8 nanocomposites, 900 μL of the eluent was evaporated using N2 flow at 40°C. The resulting residue was redissolved in 50 μL of methanol to obtain the final sample solution and analyzed by HPLC–MS/MS. The extraction process for aconitine alkaloids is depicted in Figure 3.
The pharmacokinetic parameters of aconitine alkaloids in rats were calculated using Phoenix WinNonlin 8.3 software. The maximum plasma concentration (Cmax) and the time to reach Cmax (Tmax) were directly derived from the experimental data. The elimination rate constant (Ke) was determined by linear regression of the terminal semilogarithmic plot of plasma concentration versus time, and the elimination half-life (t1/2) was calculated as 0.693/Ke. All data are presented as mean ± standard deviation.
The plasma concentrations of five aconitine alkaloid species from Fuzi were quantified using the present method. The peak plasma concentrations of aconitine, hypaconitine, mesaconitine, lappaconitine, and benzoylaconitine were reached within 0.75 h, indicating rapid absorption into the systemic circulation. […]

[3] = Automatic (24 h), plasma QC 6.25 ng/mL
[4] = Automatic (24 h), plasma QC 50 ng/mL
[5] = Freeze (−80°C for 30 d), plasma QC 6.25 ng/mL
[6] = Freeze (−80°C for 30 d), plasma QC 50 ng/mL
[7] = Freeze-thaw (three times), plasma QC 6.25 ng/mL
[8] = Freeze-thaw (three times), plasma QC 50 ng/mL
[9] = Room temperature (8 h), plasma QC 6.25 ng/mL
[10] = Room temperature (8 h), plasma QC 50 ng/mL
[11] = male, Sprague-Dawley, rat, plasma, po, read-out: Tmax

CCN1C[C@]2(COC)[C@H](O)C[C@H](OC)[C@@]34[C@@H]5C[C@@]6(O)[C@H](OC(=O)c7ccccc7)[C@@H]5[C@@](OC(C)=O)([C@@H]([C@H](OC)[C@H]23)[C@@H]14)[C@@H](O)[C@@H]6OC [Aconitine]
Stability RE % [1, 3]: 4.19%
Stability RE % [1, 4]: −10.01%
Stability RE % [1, 5]: 4.94%
Stability RE % [1, 6]: −9.37%
Stability RE % [1, 7]: 3.96%
Stability RE % [1, 8]: −8.46%
Stability RE % [1, 9]: −1.08%
Stability RE % [1, 10]: −8.69%
AUC(0-inf) ([2]; male, Sprague-Dawley): 26.9 ± 0.696 ng·h/mL
AUC(0-t) ([2]; male, Sprague-Dawley): 25.3 ± 0.566 ng·h/mL
half-life ([2]; male, Sprague-Dawley): 5.77 ± 0.348 h
MRT last ([2]; male, Sprague-Dawley): 7.11 ± 0.143 h
MRT inf ([2]; male, Sprague-Dawley): 8.59 ± 0.349 h
Cmax ([2]; male, Sprague-Dawley): 7.47 ± 0.732 ng/mL
Tmax [2, 11]: ≤ 0.75 h
Tmax [2]: 0.5 h

CCN1CC2(COC)C(O)CC(OC)C34C5CC6(O)C(OC)C(O)C(O)(C5C6OC(=O)c5ccccc5)C(C(OC)C23)C14 (stereo not shown) [Benzoylaconitine]
Stability RE % [1, 3]: −8.67%
Stability RE % [1, 4]: −9.65%
Stability RE % [1, 5]: −7.70%
Stability RE % [1, 6]: −10.48%
Stability RE % [1, 7]: −6.91%
Stability RE % [1, 8]: −10.57%
Stability RE % [1, 9]: −7.89%
Stability RE % [1, 10]: −7.98%
AUC(0-inf) ([2]; male, Sprague-Dawley): 14.1 ± 9.31 ng·h/mL
AUC(0-t) ([2]; male, Sprague-Dawley): 3.76 ± 0.0401 ng·h/mL
half-life ([2]; male, Sprague-Dawley): 62.4 ± 57.4 h
MRT last ([2]; male, Sprague-Dawley): 9.95 ± 0.374 h
MRT inf ([2]; male, Sprague-Dawley): 87.9 ± 79.7 h
Cmax ([2]; male, Sprague-Dawley): 0.939 ± 0.199 ng/mL
Tmax [2]: 0.25 h

COC[C@@]12CC[C@H](OC)[C@]34C(C([C@H](OC)[C@H]13)[C@]1(OC(C)=O)[C@H]3[C@@H](OC(=O)c5ccccc5)[C@](O)(C[C@H]34)[C@@H](OC)[C@@H]1O)N(C)C2 [Hypaconitine]
Stability RE % [1, 3]: −8.00%
Stability RE % [1, 4]: 1.32%
Stability RE % [1, 5]: −3.27%
Stability RE % [1, 6]: −2.50%
Stability RE % [1, 7]: 0.31%
Stability RE % [1, 8]: 3.47%
Stability RE % [1, 9]: −7.92%
Stability RE % [1, 10]: −7.90%
AUC(0-inf) ([2]; male, Sprague-Dawley): 80.5 ± 2.91 ng·h/mL
AUC(0-t) ([2]; male, Sprague-Dawley): 47.3 ± 1.33 ng·h/mL
half-life ([2]; male, Sprague-Dawley): 21.2 ± 0.505 h
MRT last ([2]; male, Sprague-Dawley): 8.627 ± 0.0519 h
MRT inf ([2]; male, Sprague-Dawley): 27.6 ± 0.562 h
Cmax ([2]; male, Sprague-Dawley): 9.92 ± 0.33 ng/mL
Tmax [2, 11]: ≤ 0.75 h
Tmax [2]: 0.5 h

CCN1CC2(OC(=O)c3ccccc3NC(C)=O)CCC(OC)C34C1C(CC23)C1(O)CC(OC)C2CC4C1(O)C2OC (stereo not shown) [Lappaconitine]
Stability RE % ([1]; Automatic (24 h), plasma QC 3.125 ng/mL): −0.82%
Stability RE % ([1]; Automatic (24 h), plasma QC 25 ng/mL): −7.41%
Stability RE % ([1]; Freeze (−80°C for 30 d), plasma QC 3.125 ng/mL): −0.68%
Stability RE % ([1]; Freeze (−80°C for 30 d), plasma QC 25 ng/mL): −9.65%
Stability RE % ([1]; Freeze-thaw (three times), plasma QC 3.125 ng/mL): −2.04%
Stability RE % ([1]; Freeze-thaw (three times), plasma QC 25 ng/mL): −10.40%
Stability RE % ([1]; Room temperature (8 h), plasma QC 3.125 ng/mL): −0.52%
Stability RE % ([1]; Room temperature (8 h), plasma QC 25 ng/mL): −6.67%
AUC(0-inf) ([2]; male, Sprague-Dawley): 2.421 ± 0.0223 ng·h/mL
AUC(0-t) ([2]; male, Sprague-Dawley): 2.4 ± 0.0276 ng·h/mL
half-life ([2]; male, Sprague-Dawley): 3.83 ± 0.791 h
MRT last ([2]; male, Sprague-Dawley): 4.47 ± 0.0814 h
MRT inf ([2]; male, Sprague-Dawley): 4.71 ± 0.206 h
Cmax ([2]; male, Sprague-Dawley): 1.28 ± 0.121 ng/mL
Tmax [2, 11]: ≤ 0.75 h
Tmax [2]: 0.5 h

COCC12CN(C)C3C4C(OC)C1C3(C(OC)CC2O)C1CC2(O)C(OC)C(O)C4(OC(C)=O)C1C2OC(=O)c1ccccc1 (stereo not shown) [Mesaconitine]
Stability RE % [1, 3]: −9.09%
Stability RE % [1, 4]: −9.89%
Stability RE % [1, 5]: −7.23%
Stability RE % [1, 6]: −9.46%
Stability RE % [1, 7]: −1.29%
Stability RE % [1, 8]: −7.50%
Stability RE % [1, 9]: 0.97%
Stability RE % [1, 10]: −12.74%
AUC(0-inf) ([2]; male, Sprague-Dawley): 8.11 ± 0.46 ng·h/mL
AUC(0-t) ([2]; male, Sprague-Dawley): 7.7 ± 0.411 ng·h/mL
half-life ([2]; male, Sprague-Dawley): 5.35 ± 0.562 h
MRT last ([2]; male, Sprague-Dawley): 5.69 ± 0.188 h
MRT inf ([2]; male, Sprague-Dawley): 7.03 ± 0.479 h
Cmax ([2]; male, Sprague-Dawley): 1.71 ± 0.0446 ng/mL
Tmax [2, 11]: ≤ 0.75 h
Tmax [2]: 0.75 h
